Measured values as given in patent US6362209B1, “Heterocyclic aromatic oxazole compounds and use thereof” (Japan Tobacco Inc., priority 1994, dated 2002).

Key:
[1] = target: cyclooxygenase-1 (Homo sapiens, UniProt P23219); assay: Inhibitory action on cyclooxygenase-1 (conversion of 14C arachidonic acid to PGH2); format: biochemical; conditions: enzyme prepared from human platelets; preincubation 24° C. 5 minutes; read-out: IC50 COX-1
Description: (§1) The enzymatic activity was determined from the percent conversion of ^14C arachidonic acid into prostaglandin H2 (PGH2) and the decomposed product thereof. That is, a test sample (20 μl), an enzyme solution (20 μl) and distilled water (10 μl) were added to 100 mM Tris-HCl buffer (pH 8, 140 μl) containing hematin (2 μM) and tryptophan (5 mM), and the mixture was thoroughly stirred, which was followed by preincubation at 24° C. for 5 minutes. Then, a ^14C arachidonic acid solution (10 μl) was added and the mixture was reacted at 24° C., whereafter a solution (40 μl) of ethyl ether/methanol/1M citric acid (30/4/1) iceooled to −20° C. was added to stop the reaction. The reaction mixture was centrifuged for 5 minutes at 3,000 rpm to give an ether layer which was placed on a thin plate, and developed with ethyl ether/methanol/acetic acid (90/2/0.1) to determine percent conversion (A) from arachidonic acid to PGH2 and the decomposed product thereof.
Inhibition (%)=(1A/B)×100
(§2) An enzyme prepared from human platelets was used as an enzyme solution of cyclooxygenase-1, and an enzyme expressed by a yeast, into which cDNA of human cyclooxygenase-2 had been introduced using a kit of Invitrogen Corp., was used as an enzyme solution of cyclooxygenase-2.

[2] = target: T1, human cyclooxygenase-2 (Homo sapiens, UniProt P35354); assay: Inhibitory action on cyclooxygenase-2 (conversion of 14C arachidonic acid to PGH2)
T1 sequence (P35354 18-604): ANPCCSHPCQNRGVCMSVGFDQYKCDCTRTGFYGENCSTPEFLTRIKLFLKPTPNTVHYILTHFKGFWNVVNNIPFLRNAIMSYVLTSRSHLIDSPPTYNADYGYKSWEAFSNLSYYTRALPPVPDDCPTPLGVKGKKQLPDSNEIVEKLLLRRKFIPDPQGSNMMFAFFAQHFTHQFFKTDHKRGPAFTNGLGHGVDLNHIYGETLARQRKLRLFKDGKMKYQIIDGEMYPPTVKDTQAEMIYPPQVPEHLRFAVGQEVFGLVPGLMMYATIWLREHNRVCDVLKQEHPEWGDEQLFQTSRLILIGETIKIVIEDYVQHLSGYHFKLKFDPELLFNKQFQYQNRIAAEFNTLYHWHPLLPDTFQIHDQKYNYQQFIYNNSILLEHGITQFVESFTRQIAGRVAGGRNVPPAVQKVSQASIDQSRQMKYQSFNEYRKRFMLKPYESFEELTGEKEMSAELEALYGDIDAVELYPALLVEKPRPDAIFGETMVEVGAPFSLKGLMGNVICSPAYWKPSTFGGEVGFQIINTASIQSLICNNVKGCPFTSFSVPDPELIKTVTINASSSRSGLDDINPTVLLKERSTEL
Description: as §1
Inhibition (%)=(1A/B)×100
as §2

[3] = test system: carrageenin-induced podedema; assay: Effects on carrageenin-induced podedema in rats; format: in vivo, male Donryu rats; conditions: oral dose one hour before carrageenin; limb volume 3 hours after carrageenin; dose inhibiting by 30% relative to control
Description: Experimental Example 2 (effects on carrageen in induced podedema) Carrageenin (1%, 0.05 ml) dissolved in physiological saline was subcutaneously injected to the left hindlimb of male Donryu rats to induce podedema. The degree of podedema was evaluated by measuring the volume of the limb 3 hours after carrageenin administration. A test compound (1, 3, 10 or 30 mg/kg) was orally administered one hour before carrageenin administration, and suppression thereby was studied. Inhibitory activity was expressed by the dose (ED30) of the test compound necessary for inhibiting by 30% relative to the control group.

Sequence of cyclooxygenase-1 (P23219 24-599): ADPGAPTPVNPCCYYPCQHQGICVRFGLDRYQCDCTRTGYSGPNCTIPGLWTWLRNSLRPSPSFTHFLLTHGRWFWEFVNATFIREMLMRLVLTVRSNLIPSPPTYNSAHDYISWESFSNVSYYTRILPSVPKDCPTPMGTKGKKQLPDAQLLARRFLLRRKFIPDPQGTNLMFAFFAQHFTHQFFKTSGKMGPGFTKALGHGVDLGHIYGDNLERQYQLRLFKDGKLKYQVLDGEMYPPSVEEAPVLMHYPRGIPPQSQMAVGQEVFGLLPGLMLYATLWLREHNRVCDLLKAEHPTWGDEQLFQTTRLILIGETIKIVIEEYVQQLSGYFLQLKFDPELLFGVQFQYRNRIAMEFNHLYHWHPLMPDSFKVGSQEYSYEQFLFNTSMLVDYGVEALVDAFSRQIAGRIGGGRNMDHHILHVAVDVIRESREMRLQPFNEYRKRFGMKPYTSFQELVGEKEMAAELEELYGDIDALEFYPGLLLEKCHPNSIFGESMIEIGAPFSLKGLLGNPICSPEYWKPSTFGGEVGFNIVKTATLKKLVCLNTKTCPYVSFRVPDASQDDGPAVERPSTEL

IC50 [1] [nM]	SMILES	IC50 [2] [nM]	carrageenin-induced podedema in rats, ED30 [3] [mg/kg p.o.]
> 100000	Cc1nc(C2CCCCC2)c(-c2cc(F)c(S(N)(=O)=O)c(F)c2)o1 [Example 6]	160	
37000	Cc1nc(-c2ccc(F)cc2)c(-c2ccc(S(N)(=O)=O)c(F)c2)o1 [Example 7, 5-(4-aminosulfonyl-3-fluorophenyl)-4-(4-fluorophenyl)-2-methyloxazole]	30	
	Cc1nc(C2CCCCC2)c(-c2ccc(S(N)(=O)=O)c(F)c2)o1 [Example 2, 5-(4-aminosulfonyl-3-fluorophenyl)-4-cyclohexyl-2-methyloxazole]	70	5.5
	COc1ccc2c(c1)c(CC(=O)O)c(C)n2C(=O)c1ccc(Cl)cc1 [Indomethacin, reference compound]		2.9
45000	Cc1nc(C2CCCCC2)c(-c2ccc(S(N)(=O)=O)cc2)o1 [Control 1, reference compound]		

SMILES	IC50 [1] [nM]	IC50 [2] [nM]	carrageenin-induced podedema in rats, ED30 [3] [mg/kg p.o.]
Cc1nc(C2CCCCC2)c(-c2ccc(S(C)(=O)=O)c(F)c2)o1 [Example 3, 4-cyclohexyl-5-(3-fluoro-4-methylsulfonylphenyl)-2-methyloxazole]	> 100000	300	
